Measurements published in patent US20080260720A1, “Systems and Methods for Inhibiting Metastasis” (priority 2004, published 2008).

Key:
Assay type in all cases: cell-based
[1] = system: MB-MDA-435 breast cancer cells expressing E-cadherin; experiment: Wound-filling (cell migration) assay, G12-stimulated cell escape; settings: MB-MDA-435 cells with E-cadherin and mutationally-activated Gα12; free-migrating cells 39 h after wounding
Experimental: To determine whether G12 proteins could influence cadherin-mediated suppression of cell migration, wound-filling assays using MB-MDA-435 breast cancer cells expressing E-cadherin were conducted. This system is believed to mimic the escape of potentially metastatic cells from the primary tumor. When a monolayer of cells was wounded by scraping, MB-MDA-435 cells lacking E-cadherin (435-puro) frequently broke free from the advancing “wall” of cells and migrated into the wound area as lone or “free migrating” cells.
Wound-filling assays were performed using MB-MDA-435 cells harboring E-cadherin (435-E-cad) or a control plasmid (435-puro), that were infected 40 h earlier with recombinant adenoviruses expressing either mutationally-activated Gα12 (12^QL) or mutationally-activated Gαi2 (control). Cells were visualized by fluorescence microscopy for GFP expression (indicative of successful adenovirus infection). Cells were photographed at time of initial wounding, performed by scraping cell monolayers with a pipette tip and marling the wounded areas for orientation. Marked areas were re-photographed 39 h after wounding (lower panels). […] Data from 5 randomly selected view fields are presented as mean ±S.E. for each condition. E-cadherin lacking the G12-interacting region fails to suppress cell migration. […]

MB-MDA-231 cell line = experiment: Matrigel invasion assay, MB-MDA-231; settings: 50 nM thrombin, 24 hrs, MB-MDA-231 cells, Cyquant quantification
Experimental: (§1) To examine the role of G12/13 in breast cancer invasion, the Matrigel (BD biosciences) invasion assay was used. In this assay, transwell migration chambers are coated with Matrigel, an artificial extracellular matrix believed to closely resemble basal lamina in structure and content. Cells are then plated on top of this matrix and allowed to invade the matrigel and migrate to the underside of the membrane. The cells that reach the underside of the membrane are then quantified as a measure of invasiveness. This system serves as a model for primary tumor invasion, as the matrix mimics the microenvironment through which the cancer cells must pass in order to metastasize.
(§2) MB-MDA-231 and MCF-7 cells were plated on top of a Matrigel (BD Biosciences) coated polycarbonate filter (8.0 μM pore). The filter was transferred to a chamber containing 0.1% BSA-DMEM and the cells were allowed to adhere for 1 hr. The cells were then stimulated with 50 nM thrombin. After 24 hrs, the cells were detached from the underside of the filter and quantified using the Cyquant (Molecular Probes) cell enmieration kit. […] Using retrovirus, stable MB-MDA-231 cell lines expressing p115RGS, RGS2 (see text) or the appropriate vector control were generated. Invasion assays were then preformed as in (a) using these cells.

MCF-7 cell line = experiment: Matrigel invasion assay, MCF-7; settings: 50 nM thrombin, 24 hrs, MCF-7 cells, Cyquant quantification
Experimental: as §1, §2

Molecule | effect on the G12-stimulated cell escape [1] | invasion through Matrigel (MB-MDA-231 cell line) | invasion through Matrigel (MCF-7 cell line)
C[C@@H](N)[C@H]1CC[C@H](C(=O)Nc2ccncc2)CC1 [Y27632] | no effect | – | –
thrombin | – | stimulates invasion | not
